These are literature values, as cited in US8765195B2, “Methods and compositions for increasing sex steroids and growth hormones” (Quality IP Holdings, Inc., priority 2012, dated 2014).

In data set [1] the test system is hGH. The note with it: for effect on hGH: other amino acids, literature.
The conditions of data set [2]: subcutaneous injection of 0.06 IU, GH deficient subjects.

A value given as a limit tells only on which side of the number the result lay.

`N[C@@H](Cc1c[nH]cn1)C(=O)O` [histidine]: in data set [1], the “effect on hGH” value is “marked increases in hGH”. As for `N=C(N)NCCC[C@H](N)C(=O)O` [arginine], the “elevation of serum hGH levels” value in data set [1] (30 g, males) is recorded as 8.6 fold. Also, the “increase of hGH levels” value in data set [1] (intravenous infusion of 183 mg/kg body weight, females) is more than 20 fold. As to “HGH: human growth hormone given by subcutaneous injection to GH deficient subjects”, the “mean levels of GH reached” value in data set [2] is 0.4 ng/mL.

Consider `NCCC[C@H](N)C(=O)O` [ornithine], for which the “effect on hGH” value in data set [1] is listed as “marked increases in hGH”. Turning to `CSCC[C@H](N)C(=O)O` [methionine], the “effect on hGH” value in data set [1] is on record as “marked increases in hGH”. In the case of `NCCCC[C@H](N)C(=O)O` [lysine], the “effect on hGH” value in data set [1] is “marked increases in hGH”. For the molecule `N[C@@H](Cc1ccccc1)C(=O)O` [phenylalanine], in data set [1], the “effect on hGH” value was “marked increases in hGH”.
